Test results taken from patent publication US20080119452A1, “METHODS FOR ENHANCING COGNITIVE FUNCTION” (priority 2006, published 2008).
Read-outs that look alike come from different tables or passages of the source.

Columns and labels:
rats = test: Object recognition task (time spent on novel vs familiar object); assay type: in vivo, rat
From the text: Effect of Compounds in Object Recognition Task
Spending more time on the novel than on the familiar object indicates memory for the latter. Vehicle-treated rats spent a mean of 63% of time on the novel object. The means for all of the doses of test articles were numerically higher with values of: 70 and 78% for galantamine, 71 and 75% for a first representative compound of formula IV, and 73 and 81% for a second representative compound of formula IV.
Ennaceur A and Delacour J (1988) A new one-trial test for neurobiological studies of memory in rats. 1: Behavioral data. Behav Brain Res 31: 47-59.

mouse = conditions: sub-optimal analgesic dose, cited from earlier work

Compound | % Time Novel Object (Mean ± SEM) (rats; 0.3 mg/kg p.o., 0.3 mg/kg) [%] | % Time Novel Object (Mean ± SEM) (rats; 0.3 mg/kg p.o., listed as galantamine, 0.3 mg/kg) [%] | % Time Novel Object (Mean ± SEM) (rats; 1.7 mg/kg p.o., 1.7 mg/kg) [%] | % Time Novel Object (Mean ± SEM) (rats; 1.7 mg/kg p.o., listed as galantamine, 1.7 mg/kg) [%] | effect on memory consolidation (mouse; 3 nmol/mouse i.c.v.) | effect on memory consolidation (mouse; 100 mg/kg oral administration)
COc1ccc2c3c1O[C@H]1C[C@@H](O)C=C[C@@]31CCN(C)C2 [Galantamine, galantamine] | 70 ± 6 | 70 | 78 ± 5 | 78 | – | –
rubiscolin-6 | – | – | – | – | enhance memory consolidation | enhance memory consolidation
